Data reported in patent US20100055168A1, “CATIONIC LIPIDS AND USES THEREOF” (ABBOTT LABORATORIES, priority 2008, published 2010).

Assays:
[1] = Ribogreen assay for siRNA encapsulation efficiency of Lipid-Based Particles; assay type: physicochemical; details: Lipid:siRNA 25:1
Protocol: The mixing solution of cationic lipids, cholesterol, non-cationic lipids and PEG-lipids was prepared in ethanol (total concentration at 10 mg/mL). siSTABLE (purchased from ThermoFisher) (sense-5′ GGGGAAAGCUGGCAAGAUUUU-3′ SEQ ID NO: 1) antisense-5′-AAUCUUGCCAGCUUUCCCCUU-3′ SEQ ID NO: 2) % stock solution was prepared in 10 mg/mL of solution by dissolving 10 mg siRNA in 1 mL of RNAse-free UltraPure Water. The calculated amount of siRNA solution was added to 1 mL of citrate buffer (pH 4.0, 20 mM), to provide an siRNA concentration of 0.2 mg/mL, and warmed to 60° C. The calculated amount of lipid solution was warmed to 60° C., transferred to a 0.5 mL syringe with 28½ gauge needle, and injected into the citrate buffer with stirring at 60° C. After 3 minutes, 3 mL of PBS solution at room temperature (pH 7.4) was added into the lipid mixture with stirring. The Lipid-Based Particle solution was cooled to room temperature.
(§1) The siRNA concentrations were measured using Quanti-iT RiboGreen RNA reagent (Molecular Probes, (R11490)). Vesicle sizes were characterized by dynamic light scattering with a DynaPro™ Plate Reader (Wyatt Technology) in 96-well half-area UV plate (Coring) after diluting the formulation sample (20 μL) in phosphate buffered saline (80 μL) at a pH of about 7-8. A 1% agarose gel-based assay was used for analyzing nuclease degradation and protection. Encapsulation efficiency (EE) was calculated using data obtained from a RiboGreen assay.
RNA concentration and encapsulation efficiency were determined using a Quant-iT® Ribogreen RNA reagent and kit available from Invitrogen. The siRNA was released from the Lipid-Based Particle using one of the following reagents: ethanol, Triton X-100, or phenol/chloroform. The siRNA concentration is quantified using fluorescent reading at 480 nm/520 nm.
A round bottom flask was submerged into a 65° C. water bath. Citrate buffer (37.5 ml) of pH 4.0 was pipetted into the flask. The solution was stirred by a magnetic stirring bar at a speed of 900 rpm. Both the pH 4.0 citrate buffer and the lipid solution were pre-warmed in the 65° C. water bath for about 3 minutes. A siRNA solution (0.5 ml) was pipetted into the pH 4.0 citrate buffer. The 12.5 ml lipid mixture solution was injected through a 27 gauge needle into the citrate buffer in about 30 seconds. The needle tip was inserted into the solution during the injection. The resulting solution was stirred for 5 minutes at a speed of 900 rpm. The flask was pulled up from the water bath and a 50 ml pH 7.4 PBS buffer was added into the flask. The final solution was further mixed at a speed of 900 rpm for 5 minutes. For the diafiltration process, a dialysis filter (Millipore, 100K, Cat #PXB100C50) was used to remove ethanol in the above solution. When the volume was reduced to 20 ml during the initial diafiltration, 20 ml of pH 7.4 PBS was added to the sample solution. The diafiltration was continued until the volume was reduced to 20 ml. The diafiltration process was repeated 4 times. The volume of the sample solution was reduced to about 12 ml and pH 7.4 PBS was added to make the final volume of 15 ml. The 15 ml solution was filtered sequentially through the 0.45 and 0.22 μm sterile PVDF membrane filters (Millipore) and immediately transferred into a sterile vial.

[2] = Particle sizing assay of in vitro formulations (dynamic light scattering, DynaPro plate reader); assay type: physicochemical; details: Lipid:siRNA 25:1
Protocol: as §1
Particle sizes and size distributions (PDI) were characterized by using dynamic light scattering (DLS). A DLS plate reader (Dynapro™, Wyatt Technology) was used for the DLS measurement. This DLS plate reader uses an 830 nm laser and the scattering angle is 158°. It also can control temperature from 4° C. to 70° C. A 96-well format was employed for the samples.
Samples for DLS analysis were prepared by mixing 20 μL of each sample stock solution with 80 μL PBS directly in the 96-well plate (#3697, Coming). Sample mixing was accomplished using a microplate shaker (Orbis, Mikura Ltd.). Plates were read at 20° C. with an acquisition time of 50 seconds for each sample, and data was analyzed with Wyatt Technology's Dynamics V6 software. To rule out potential multiple scattering artifacts, a second plate at […] reduced sample concentrations was independently prepared by mixing 5 μL stock solutions with 95 μL PBS. Under our experimental conditions the results at the two concentrations were very similar, and the final reported result for each sample represents the average of values obtained from the two plates.

[3] = in vitro formulation b: Cationic lipid/PEG-Chol/DSPC/Chol 45/10/15/30 wt %
[4] = in vitro formulation a: Cationic lipid/Example 56/DSPC/Chol 45/10/15/30 wt %

Compound | % Encapsulation Efficiency [1, 3] [%] | Size [2, 4] [nm] | further results
CCCCC/C=C\C/C=C\CCCCCCCCOCC(COCCCCCCCC/C=C\C/C=C\CCCCC)CN1CCCC1 [Example 24, 1-(3-((9Z,12Z)-octadeca-9,12-dienyloxy)-2-(((9Z,12Z)-octadeca-9,12-dienyloxy)methyl)propyl)pyrrolidine] | 91.7 | – | –
CCCCC/C=C\C/C=C\CCCCCCCCOCC(COCCCCCCCC/C=C\C/C=C\CCCCC)NCc1cccnc1N1CCCC1 [Example 20, N-(2-((9Z,12Z)-octadeca-9,12-dienyloxy)-1-(((9Z,12Z)-octadeca-9,12-dienyloxy)methyl)ethyl)-N-((2-pyrrolidin-1-ylpyridin-3-yl)methyl)amine] | – | 134 | % Encapsulation Efficiency [1, 4]: 55.9%
CCCCC/C=C\C/C=C\CCCCCCCCOCC(COCCCCCCCC/C=C\C/C=C\CCCCC)NCC1CCN(C)CC1 [Example 12, N-((1-methylpiperidin-4-yl)methyl)-N-(2-((9Z,12Z)-octadeca-9,12-dienyloxy)-1-(((9Z,12Z)-octadeca-9,12-dienyloxy)methyl)ethyl)amine] | 84.9 | – | Size [2, 3]: 119.8 nm
CCCCC/C=C\C/C=C\CCCCCCCCOCC(COCCCCCCCC/C=C\C/C=C\CCCCC)NCCCNCCCCNCCCN [Example 25, N-(3-aminopropyl)-N′-{3-[(2-[(9Z,12Z)-octadeca-9,12-dienyloxy]-1-{[(9Z,12Z)-octadeca-9,12-dienyloxy]methyl}ethyl)amino]propyl}butane-1,4-diamine] | 92.3 | – | –
CCCCC/C=C\C/C=C\CCCCCCCCOCC(N)COCCCCCCCC/C=C\C/C=C\CCCCC [Example 11, 1,3-bis((9Z,12Z)-octadeca-9,12-dienyloxy)propan-2-amine] | – | 132 | % Encapsulation Efficiency [1, 4]: 96.0%
CCCCC/C=C\C/C=C\CCCCCCCCOCC(COCCCCCCCC/C=C\C/C=C\CCCCC)COC(=O)NCCN(CC)CC [Example 28, 3-[(9Z,12Z)-octadeca-9,12-dienyloxy]-2-{[(9Z,12Z)-octadeca-9,12-dienyloxy]methyl}propyl 2-(diethylamino)ethylcarbamate] | 93.0 | – | –
CCCCC/C=C\C/C=C\CCCCCCCCOCC(COCCCCCCCC/C=C\C/C=C\CCCCC)N1CCN(CCCN(C)C)CC1 [Example 10, N,N-dimethyl-N-(3-(4-(2-((9Z,12Z)-octadeca-9,12-dienyloxy)-1-(((9Z,12Z)-octadeca-9,12-dienyloxy)methyl)ethyl)piperazin-1-yl)propyl)amine] | 72.6 | – | Size [2, 3]: 112 nm
CCCCC/C=C\C/C=C\CCCCCCCCOCC(COCCCCCCCC/C=C\C/C=C\CCCCC)N(C)Cc1cccc(CN2CCCC2)c1 [Example 18, N-methyl-N-(2-((9Z,12Z)-octadeca-9,12-dienyloxy)-1-(((9Z,12Z)-octadeca-9,12-dienyloxy)methyl)ethyl)-N-(3-(pyrrolidin-1-ylmethyl)benzyl)amine] | – | 122 | % Encapsulation Efficiency [1, 4]: 96.7%
CCCCC/C=C\C/C=C\CCCCCCCCOCC(COCCCCCCCC/C=C\C/C=C\CCCCC)N(C)C [Example 2, N,N-dimethyl-N-(2-((9Z,12Z)-octadeca-9,12-dienyloxy)-1-(((9Z,12Z)-octadeca-9,12-dienyloxy)methyl)ethyl)amine] | – | 134 | –
CCCCC/C=C\C/C=C\CCCCCCCCOCC(COCCCCCCCC/C=C\C/C=C\CCCCC)N1CCCC1 [Example 1, 1-(2-((9Z,12Z)-octadeca-9,12-dienyloxy)-1-(((9Z,12Z)-octadeca-9,12-dienyloxy)methyl)ethyl)pyrrolidine] | – | 170 | PDI (size distribution) [2, 4]: 0.20
CCCCC/C=C\C/C=C\CCCCCCCCOCC(COCCCCCCCC/C=C\C/C=C\CCCCC)N1CCOCC1 [Example 5, 4-(2-((9Z,12Z)-octadeca-9,12-dienyloxy)-1-(((9Z,12Z)-octadeca-9,12-dienyloxy)methyl)ethyl)morpholine] | – | 143 | PDI (size distribution) [2, 4]: 0.14
CCCCC/C=C\C/C=C\CCCCCCCCOCC(COCCCCCCCC/C=C\C/C=C\CCCCC)N(C)CCCN(C)C [Example 17, N,N,N′-trimethyl-N′-(2-((9Z,12Z)-octadeca-9,12-dienyloxy)-1-(((9Z,12Z)-octadeca-9,12-dienyloxy)methyl)ethyl)propane-1,3-diamine] | 87.1 | – | Size [2, 3]: 121.8 nm
CCCCC/C=C\C/C=C\CCCCCCCC(=O)OCC(COC(=O)CCCCCCC/C=C\C/C=C\CCCCC)N1CCN(C)CC1 [Example 21, (9Z,9′Z,12Z,12′Z)-2-(4-methylpiperazin-1-yl)propane-1,3-diyl dioctadeca-9,12-dienoate] | – | 117.2 | % Encapsulation Efficiency [1, 4]: 96.6%
CCCCC/C=C\C/C=C\CCCCCCCC(=O)OCC(COC(=O)CCCCCCC/C=C\C/C=C\CCCCC)NCCCN1CCCC1 [Example 22, (9Z,9′Z,12Z,12′Z)-2-(3-(pyrrolidin-1-yl)propylamino)propane-1,3-diyl dioctadeca-9,12-dienoate] | – | 120.8 | % Encapsulation Efficiency [1, 4]: 88.4%
CCCCC/C=C\C/C=C\CCCCCCCCOCC(COCCCCCCCC/C=C\C/C=C\CCCCC)N(C)CCCN1CCCC1 [Example 14, N-methyl-N-(2-((9Z,12Z)-octadeca-9,12-dienyloxy)-1-(((9Z,12Z)-octadeca-9,12-dienyloxy)methyl)ethyl)-N-(3-pyrrolidin-1-ylpropyl)amine] | 88.3 | – | Size [2, 3]: 128.4 nm
CCCCC/C=C\C/C=C\CCCCCCCCOCC(CNCCCN1CCCC1)COCCCCCCCC/C=C\C/C=C\CCCCC [Example 26, N-(3-[(9Z,12Z)-octadeca-9,12-dienyloxy]-2-{[(9Z,12Z)-octadeca-9,12-dienyloxy]methyl}propyl)-N-(3-pyrrolidin-1-ylpropyl)amine] | 99.9 | – | –
CCCCC/C=C\C/C=C\CCCCCCCCOCC(COCCCCCCCC/C=C\C/C=C\CCCCC)COC(=O)NCCN1CCCC1 [Example 29, 3-[(9Z,12Z)-octadeca-9,12-dienyloxy]-2-{[(9Z,12Z)-octadeca-9,12-dienyloxy]methyl}propyl 2-pyrrolidin-1-ylethylcarbamate] | 95.0 | – | –
CCCCC/C=C\C/C=C\CCCCCCCCOCC(COCCCCCCCC/C=C\C/C=C\CCCCC)COC(=O)NCCN(C)C [Example 30, 3-[(9Z,12Z)-octadeca-9,12-dienyloxy]-2-{[(9Z,12Z)-octadeca-9,12-dienyloxy]methyl}propyl 2-(dimethylamino)ethylcarbamate] | 95.0 | – | –
CCCCC/C=C\C/C=C\CCCCCCCCOCC(COCCCCCCCC/C=C\C/C=C\CCCCC)CN(C)C [Example 27, N,N-dimethyl-N-(3-[(9Z,12Z)-octadeca-9,12-dienyloxy]-2-{[(9Z,12Z)-octadeca-9,12-dienyloxy]methyl}propyl)amine] | 71.9 | – | –
